From the supplement of paper PMC10307832

Tests used:
Experiment in all cases: relative viability (nuclei count vs DMSO), 5 days (fraction); higher = more cells survive
Trametinib + Crizotinib = compound: CC(=O)Nc1cccc(-n2c(=O)n(C3CC3)c(=O)c3c(Nc4ccc(I)cc4F)n(C)c(=O)c(C)c32)c1 [Trametinib] + C[C@@H](Oc1cc(-c2cnn(C3CCNCC3)c2)cnc1N)c1c(Cl)ccc(F)c1Cl [Crizotinib] (partner 1 µM)
In short: (§1)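 Values are medians from duplicate plates. Each reflects relative viability, defined as the nuclei count of treated wells over that of vehicle wells. Lung cancer cell lines in 1536-well plates were pin-tool dosed one day after seeding with one drug alone or with a fixed anchor-drug dose plus five library-drug doses (not always all listed) in √10 steps, then fixed, stained and imaged at 4× after 5 days.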

[1] = compound: CN1C=C(C2=CC=CC=C21)/C=C\3/C4=C(C=CC=N4)NC3=O + Nc1ncn([C@H]2C[C@H](O)[C@@H](CO)O2)c(=O)n1 [Decitabine] (partner 2 µM)
In short: as §1

[2] = compound: CN1C=C(C2=CC=CC=C21)/C=C\3/C4=C(C=CC=N4)NC3=O + CS(=O)(=O)N1CCN(Cc2cc3nc(-c4cccc5[nH]ncc45)nc(N4CCOCC4)c3s2)CC1 [Pictilisib] (partner 1 µM)
In short: as §1

Trametinib + Lapatinib = compound: CC(=O)Nc1cccc(-n2c(=O)n(C3CC3)c(=O)c3c(Nc4ccc(I)cc4F)n(C)c(=O)c(C)c32)c1 [Trametinib] + CS(=O)(=O)CCNCc1ccc(-c2ccc3ncnc(Nc4ccc(OCc5cccc(F)c5)c(Cl)c4)c3c2)o1 [Lapatinib] (partner 2 µM)
In short: as §1

Row | Cell Line | relative viability (Trametinib + Crizotinib; first compound 0.0025 µM) | relative viability (Trametinib + Crizotinib; first compound 0.007906 µM) | relative viability (Trametinib + Crizotinib; first compound 0.025 µM) | relative viability (Trametinib + Crizotinib; first compound 0.07906 µM) | relative viability (Trametinib + Crizotinib; first compound 0.25 µM) | relative viability ([1]; first compound 0.02 µM) | relative viability ([1]; first compound 0.06325 µM) | relative viability ([1]; first compound 0.2 µM) | relative viability ([1]; first compound 0.6325 µM) | relative viability ([1]; first compound 2 µM) | relative viability ([2]; first compound 0.02 µM) | relative viability ([2]; first compound 0.06325 µM) | relative viability ([2]; first compound 0.2 µM) | relative viability ([2]; first compound 0.6325 µM) | relative viability ([2]; first compound 2 µM) | relative viability (Trametinib + Lapatinib; first compound 0.0025 µM) | relative viability (Trametinib + Lapatinib; first compound 0.007906 µM) | relative viability (Trametinib + Lapatinib; first compound 0.025 µM) | relative viability (Trametinib + Lapatinib; first compound 0.07906 µM) | relative viability (Trametinib + Lapatinib; first compound 0.25 µM)
1 | NCI-H441 | 0.757 | 0.691 | 0.608 | 0.448 | 0.294 | 0.225 | 0.247 | 0.23 | 0.229 | 0.497 | 0.477 | 0.426 | 0.474 | 0.402 | 0.595 | – | – | – | – | –
2 | NCI-H520 | 0.752 | 0.681 | 0.815 | 0.733 | 0.557 | 0.46 | 0.492 | 0.536 | 0.473 | 0.52 | 0.275 | 0.296 | 0.275 | 0.308 | 0.335 | 0.855 | 0.912 | 0.756 | 0.68 | 0.428
3 | CAL-12T | 0.651 | 0.853 | 0.434 | 0.367 | 0.213 | – | – | – | – | – | 0.556 | 0.394 | 0.26 | 0.447 | 0.326 | 0.54 | 0.514 | 0.47 | 0.648 | 0.429
4 | HCC-827 | 0.931 | 0.946 | 0.889 | 0.859 | 0.532 | 0.315 | 0.297 | – | 0.327 | 0.297 | 1.07 | 0.996 | – | 0.772 | 1 | 0.191 | 0.164 | 0.178 | 0.208 | 0.228
5 | LC-2-ad | 0.47 | 0.463 | 0.422 | – | 0.294 | 0.772 | 0.826 | 0.783 | 0.861 | 0.817 | 0.356 | 0.475 | 0.434 | 0.446 | 0.401 | 0.917 | 0.839 | 0.664 | 0.639 | 0.285
6 | NCI-H2170 | 1.16 | 1.07 | – | 1.1 | 1.04 | 0.481 | 0.487 | 0.458 | 0.447 | 0.411 | – | 0.312 | 0.235 | 0.317 | 0.242 | 0.311 | 0.258 | – | 0.261 | 0.246
7 | SW 1573 | 0.781 | 0.603 | 0.601 | 0.518 | 0.462 | 0.477 | 0.498 | 0.514 | 0.542 | 0.458 | 0.474 | 0.489 | 0.51 | 0.532 | 0.521 | 0.875 | 0.925 | 0.769 | 0.82 | 0.56
8 | SK-MES-1 | 0.997 | 0.991 | 0.792 | 0.543 | 0.334 | 0.37 | 0.336 | 0.369 | 0.38 | 0.369 | 0.338 | 0.308 | 0.346 | 0.342 | 0.302 | 0.447 | 0.39 | 0.352 | 0.362 | 0.344
9 | NCI-H1648 | – | – | – | – | – | 0.5 | 0.453 | 0.496 | 0.448 | 0.327 | – | – | – | – | – | – | – | – | – | –
10 | NCI-H1793 | – | – | – | – | – | 0.34 | 0.521 | 0.493 | 0.59 | 0.499 | 0.258 | 0.314 | 0.257 | 0.282 | 0.304 | 0.478 | 0.531 | 0.397 | 0.395 | 0.352
11 | NCI-H1299 | 0.951 | 0.926 | 0.869 | 0.848 | 0.521 | – | – | – | – | – | 0.567 | 0.811 | 0.8 | 0.824 | 0.894 | 1.01 | 0.994 | 0.901 | 0.87 | 0.555
12 | LCLC-97TM1 | 0.482 | 0.573 | 0.271 | 0.281 | 0.147 | – | 0.189 | 0.205 | 0.208 | 0.241 | 0.159 | – | – | 0.216 | 0.131 | 0.666 | 0.944 | 0.666 | 0.3 | 0.138
13 | NCI-H1915 | 0.872 | 0.756 | 0.568 | 0.333 | 0.231 | 0.242 | 0.258 | 0.287 | 0.573 | 0.53 | 0.973 | 0.871 | 0.831 | 0.961 | 0.97 | 1.01 | 0.929 | 0.873 | 0.538 | 0.253
14 | NCI-H661 | 1.12 | 1.19 | 1.03 | 1.04 | 1.08 | 0.594 | 0.562 | 0.496 | 0.564 | 0.555 | 0.399 | 0.418 | 0.325 | 0.339 | 0.375 | 0.43 | 0.451 | 0.448 | 0.341 | 0.421
15 | NCI-H2405 | 0.864 | 0.836 | 0.685 | 0.561 | 0.521 | 0.739 | 0.676 | 0.653 | 0.725 | 0.734 | 0.423 | 0.399 | 0.401 | 0.388 | 0.41 | 0.992 | 0.68 | 0.498 | 0.499 | 0.481
16 | NCI-H2347 | 0.698 | 0.476 | 0.252 | 0.464 | 0.433 | 0.563 | 0.552 | 0.588 | 0.582 | 0.608 | 0.527 | 0.704 | 0.572 | 0.438 | 0.658 | 0.961 | 0.56 | 0.503 | 0.435 | 0.452
17 | NCI-H1651 | 0.898 | 0.804 | 0.828 | 0.743 | 0.729 | 0.649 | 0.613 | 0.5 | 0.643 | 0.578 | 0.495 | 0.706 | 0.628 | 0.524 | 0.728 | 0.757 | 0.74 | 0.66 | 0.531 | 0.452
18 | H3255 | 0.845 | 0.931 | 0.799 | 0.715 | 0.48 | 0.796 | – | 0.57 | 0.563 | 0.491 | 0.41 | 0.453 | 0.395 | 0.501 | 0.475 | 0.246 | 0.188 | 0.269 | 0.201 | 0.236
